# Source: US20220347075A1, “PEPTIDE BASED COSMETIC OR DERMATOLOGICAL TREATMENT OF THE SKIN AND ITS APPENDAGES” (Sederma, priority 2019, published 2022)
# Residues, ends and D or L forms follow the SMILES beside them. *: point of attachment. Palmitoyl = CCCCCCCCCCCCCCCC(=O)*
# How the values were obtained:
# Type in all cases: cell-based
# [1] = system: normal human keratinocytes (NHK); test: DNA microarray (DNA-Array) gene expression on NHK culture; conditions: 7 ppm
# Protocol: Study Using DNA Microarray Technology (DNA-Array) on NHK Culture
# Principle: the peptide according to the invention (7 ppm) is brought into contact for 24 or 48 hours with confluent NHKs (vs. control case). Then the NHK mats are rinsed, and the cells are crushed to extract their mRNA. These mRNAs are then converted into DNA sequences which are analyzed after depositing on DNA chips and amplification by a method like QRT-PCR. The mRNA variations due to the peptide are compared to the control case (peptide solvent). The results are expressed as an expression ratio between the treated case and the control case. A ratio greater than 1.5 is as an induction of gene expression (+50% compared to the control).
# [2] = system: normal human keratinocytes (NHK); test: Immunocytofluorescence labeling of involucrin, loricrin, filaggrin on NHK culture; conditions: 5 ppm, 7 days, immunofluorescence
# Protocol: Study by Immunocytofluorescence Labeling on KHN Culture
# Principle: confluent NHKs (n=3) are cultured as above for 7 days in the presence or absence (control) of the peptide according to the invention then the cell layers are fixed and labels by immunocytochemistry are carried out using antibodies directed against proteins characteristic of the maturation of the epidermis: involucrine, loricrin and filaggrin. Photos are captured using a fluorescence microscope and images analyzed using appropriate software. The results are compared with those of the control. The number of cells on the mats is evaluated by the Hoechst method (DNA staining), to reduce the fluorescence value to the number of cells. A variance study and a Student's t test are carried to judge the significance of the results.
# 1.1.1. Induction of the formation of involucrin, loricrin and filaggrin in NEM (by immunofluorescence)/effect of 5 ppm of the peptide according to the invention: […]
# [3] = system: normal human keratinocytes (NHK); test: Molecular biology study (qRT-PCR) on NHK culture; conditions: 5 ppm, 24 hours, RT-PCR
# Protocol: Molecular Biology Study on NHK Culture
# Principle: in this test, confluent keratinocytes are brought into contact with the peptide according to the invention for 24 hours. The cells are then frozen to dryness and their RNAs are extracted, converted into DNA, then analyzed by qRT-PCR (“Quantitative real time reverse transcription polymerase chain reaction”). The results are expressed as an expression ratio between the treated case and the control case. A ratio greater than 1.5 is as an induction of gene expression (+50% compared to the control). A study of variances and a Student's t test are carried out for judging the significance of the results (n=4 for each condition).
# [4] = system: normal human keratinocytes (NHK) exposed to UVB; test: Immunoenzymatic assay (ELISA) of pro-inflammatory mediators of NHK exposed to UVB
# Protocol: Study by Immune Enzymatic Assay on NHK Culture
# Principle: NHKs in culture and at confluence are brought into contact with the peptide according to the invention (or its solvent) for 24 hours in a medium allowing their survival. Then the cell layers are irradiated with UVB in a physiological buffer and again brought into contact with the products to be tested for 24 hours. At the end of this incubation, the culture media are assayed by ELISA to know the amounts of pro-inflammatory mediators produced by these cells in response to irradiation. The results are compared to the control. A cell respiration test is conducted on the fixed mat to assess the number of cells and standardize the results. A study of variances and a Student's t test are carried out for judging the significance of the results.
# To test the active ingredients, keratinocytes were placed in culture under light stress conditions (application of UVB radiation) to mimic an experimental skin micro-inflammation. In this situation, a significant decrease in their secretome of inflammation mediators will be interpreted in the sense of a restorative and protective action of the skin.
# Variation compared to the control of the secretome of pro-inflammatory mediators by NHKs exposed to UVB (by immunoenzymatic assay)/effect of the peptide according to the invention at 4, 6 and 8 ppm: […]
# Propionibacterium acnes = Propionibacterium acnes growth inhibition test (OD 600 nm); conditions: for Time necessary to reach an OD of 1 (P. acnes growth): control 28 hours, anaerobic, 37° C.
# Protocol: Propionibacterium acnes Growth Inhibition Test Principle: suspensions of Propionibacterium acnes of equivalent density are cultured in a suitable medium in the presence (test case) or absence (control case) of the peptide according to the invention, in anaerobic condition, at 37° C. Samples are taken at regular intervals to measure the OD at 600 nm for following the growth of the bacterial population over time. The growth curve of each culture is thus established. Growth of the bacterium Propionibacterium acnes: time necessary to reach an OD of 1 in the control case and in the presence of the peptide according to the invention (N=2 independent experiments; n=2 cultures per case): […]
# [5] = system: normal human keratinocytes (NHK); test: LC-MS/MS protein study on NHK culture; conditions: 5 ppm; 7 days; p < 0.01
# Text: Liquid Chromatography/Mass Spectrometry (LC-MS/MS) Study on NHK Culture
# Principle: the same culture protocol as for the DNA-Array is used but with a longer culture time (7 days) because the protein productions take longer to be able to be detected with this method in LC-MS/MS. The peptide concentration applied to the cells is 5 ppm (vs. control case). The culture medium of the NHK (n=3) is changed every 3 days. At the end of this contact, the cells are lysed for extracting the proteins and to analyze them in the form of ground material by a method combining the action of a protease on the ground material, the separation of the fragments by liquid chromatography coupled with mass spectrometry, and then the identification and concentration of pre-existing proteins according to the nature and quantity of the fragments obtained (LC-MS/MS). To carry out LC-MS/MS analysis on equivalent amounts of proteins, the protein concentration is measured on the ground material. The results are expressed as an expression ratio between the treated case and the control case. A ratio greater than 1.5 is considered as an increase in protein production (+50% compared to the control). A study of variances and a Student's t test is carried out for judging the significance of the results.
compound,measurement,setting,value
"CCCCCCCCCCCCCCCC(=O)N[C@@H](CCCCN)C(=O)N[C@H](C(=O)N[C@H](C(=O)N[C@@H](CCCCN)C(=O)N[C@@H](CO)C(=O)O)[C@@H](C)O)[C@@H](C)O [Pal-KTTKS, palmitoyl-lysyl-threonyl-threonyl-lysyl-serine] (Palmitoyl-KTTKS-OH)","ABHD5 gene expression, variation vs control",[1]; 24 h contact,×2.10
same,"ADGRG1 gene expression, variation vs control",[1]; 24 h contact,×1.92
same,"ALOX12B gene expression, variation vs control",[1]; 24 h contact,×2.48
same,"ALOXE3 gene expression, variation vs control",[1]; 24 h contact,×2.92
same,"ASPRV1 gene expression, variation vs control",[1]; 24 h contact,×3.35
same,"BMP2 gene expression, variation vs control",[1]; 24 h contact,×3.63
same,"BMP6 gene expression, variation vs control",[1]; 24 h contact,×13
same,"ELOVL4 gene expression, variation vs control",[1]; 24 h contact,×5.41
same,"FN1 gene expression, variation vs control",[1]; 24 h contact,×3.38
same,"GSK3B (glycogen synthase kinase 3 beta) gene expression, variation vs control",[1]; 24 h contact,×1.64
same,"GSKA (glycogene synthase kinase 3 alpha) gene expression, variation vs control",[1]; 24 h contact,×1.57
same,"IL37 gene expression, variation vs control",[1]; 24 h contact,×3.60
same,"LCE2C gene expression, variation vs control",[1]; 24 h contact,×26.30
same,"LCE3A gene expression, variation vs control",[1]; 24 h contact,×65.26
same,"LCE3B gene expression, variation vs control",[1]; 24 h contact,×123.00
same,"LCE3D gene expression, variation vs control",[1]; 24 h contact,×110.46
same,"LCE3E gene expression, variation vs control",[1]; 24 h contact,×135.99
same,"LOR gene expression, variation vs control",[1]; 24 h contact,×1.86
same,"PPARD gene expression, variation vs control",[1]; 24 h contact,×1.97
same,"PRSS8 gene expression, variation vs control",[1]; 24 h contact,×3.72
same,"SPRR2A gene expression, variation vs control",[1]; 24 h contact,×8.71
same,"SPRR2B gene expression, variation vs control",[1]; 24 h contact,×58.44
same,"SPRR2C gene expression, variation vs control",[1]; 24 h contact,×6.30
same,"SPRR2D gene expression, variation vs control",[1]; 24 h contact,×7.87
same,"SPRR2E gene expression, variation vs control",[1]; 24 h contact,×6.47
same,"SPRR2F gene expression, variation vs control",[1]; 24 h contact,×6.00
same,"SPRR2G gene expression, variation vs control",[1]; 24 h contact,×13.43
same,"SPRR3 gene expression, variation vs control",[1]; 24 h contact,×1.90
same,"SPRR4 gene expression, variation vs control",[1]; 24 h contact,×2.95
same,"TGM1 gene expression, variation vs control",[1]; 24 h contact,×1.70
same,"CDSN gene expression, variation vs control",[1]; 24 hours of contact,×3.36
same,"CGNL1 gene expression, variation vs control",[1]; 24 hours of contact,×3.37
same,"CLDN4 gene expression, variation vs control",[1]; 24 hours of contact,×5.16
same,"CLDN7 gene expression, variation vs control",[1]; 24 hours of contact,×4.47
same,"CLDN12 gene expression, variation vs control",[1]; 24 hours of contact,×2.68
same,"CLDN15 gene expression, variation vs control",[1]; 24 hours of contact,×4.80
same,"CLDN17 gene expression, variation vs control",[1]; 24 hours of contact,×113.20
same,"CLDN23 gene expression, variation vs control",[1]; 24 hours of contact,×3.69
same,"KLK14 gene expression, variation vs control",[1]; 24 hours of contact,×1.79
same,"OCLN gene expression, variation vs control",[1]; 24 hours of contact,×5.91
same,"TJP1 gene expression, variation vs control",[1]; 24 hours of contact,×2.15
same,"CERS1 gene expression, variation vs control",[1]; 48 h contact,×3.48
same,"CRNN gene expression, variation vs control",[1]; 48 h contact,×4.73
same,"TCHH gene expression, variation vs control",[1]; 48 h contact,×4.87
same,"SOD2 gene expression, variation vs control",[1]; 48 hours contact,×2.93
same,Filaggrin: % of variation/control,[2]; p < 0.01,+310%; p < 0.01
same,Loricrin: % of variation/control,[2]; p < 0.01,+128%; p < 0.01
same,Involucrin: % of variation/control,[2]; p < 0.05,+1057%; p < 0.05
same,"CRYAB (alpha-crystallin B) gene expression, variation vs control",[3]; p < 0.01,×3.47; p < 0.01
same,"Involucrine gene expression, variation vs control",[3]; p < 0.01,×1.64; p < 0.01
same,"Transglutaminase 1 gene expression, variation vs control",[3]; p < 0.05,×1.82; p < 0.05
same,"IL6 secretion, variation vs control","[4]; 4 ppm, ns",−13%
same,"PGE2 secretion, variation vs control","[4]; 4 ppm, p < 0.01",−41%
same,"IL6 secretion, variation vs control","[4]; 6 ppm, p < 0.01",−68% (p < 0.01)
same,"PGE2 secretion, variation vs control","[4]; 6 ppm, p < 0.01",−69% (p < 0.01)
same,"IL6 secretion, variation vs control","[4]; 8 ppm, p < 0.01",−84% (p < 0.01)
same,"PGE2 secretion, variation vs control","[4]; 8 ppm, p < 0.01",−84% (p < 0.01)
same,Time necessary to reach an OD of 1 (P. acnes growth),Propionibacterium acnes; 6 ppm of peptide,42 h
same,Growth of Propionibacterium acnes (result in words),Propionibacterium acnes; 6 to 12 ppm,strongly and dose-dependently inhibits the growth
same,Time necessary to reach an OD of 1 (P. acnes growth),Propionibacterium acnes; 9 ppm of peptide,54 h
same,Time necessary to reach an OD of 1 (P. acnes growth),Propionibacterium acnes; 12 ppm of peptide,85.5 h
same,"ADGRG1 protein, variation vs control",[5],×1.63;
same,"ASPRV1 protein, variation vs control",[5],×2.35; p < 0.01
same,"CALM5 protein, variation vs control",[5],×1.61; p < 0.01
same,"CRYAB (alpha-crystallin B) protein, variation vs control",[5],×2.24; p < 0.01
same,"FLG (filaggrin) protein, variation vs control",[5],×2.66; p < 0.01
same,"KRT1 protein, variation vs control",[5],×1.58; p < 0.01
same,"KRT6B protein, variation vs control",[5],×2.07; p < 0.01
same,"KRT9 protein, variation vs control",[5],×1.54; p < 0.01
same,"KRT10 protein, variation vs control",[5],×1.75; p < 0.01
same,"KRT15 protein, variation vs control",[5],×2.02; p < 0.01
same,"LOR (loricrin) protein, variation vs control",[5],×2.92; p < 0.01
same,"SPINK5 protein, variation vs control",[5],×1.58; p < 0.01
same,"TCHH (trichohyalin) protein, variation vs control",[5],×1.54; p < 0.01
same,"THBS1 protein, variation vs control",[5],×1.98;
